From US20070275925A1, “ASTHMA DIAGNOSIS AND THERAPY” (REGENTS OF THE UNIVERSITY OF CALIFORNIA, priority 2006, published 2007)

Test system: primary human airway epithelial cells
Experiment: IL-13 stimulation of airway epithelial cells in vitro, real time RT-PCR
Assay type: cell-based
Conditions: IL-13 10 ng/mL, up to 4 days
Description: To confirm that airway epithelial cells are a source of serpinB2 and periostin and that these genes may be induced by cytokines relevant to asthma, we stimulated primary human airway epithelial cells in vitro with IL-13 (0.1 to 10 ng) for up to 4 days (methods in supplementary appendix).
Human primary bronchial airway epithelial cells were purchased (Clonetics—Cambrex Bio Science, Walkersville Md.) and grown as described by Gray et al.^7 Cells were purchased at passage 1 and expanded in T25 flasks until they reached 80% confluency at which time they were passaged onto 6.5 mm Transwell permeable supports at a density of 132,000 cells/filter. The cells were grown submerged in Gray's medium until approximately day 7 to 9 at which point an air-liquid interface was established. Cells became fully differentiated (ciliated and mucous producing) as determined by transepithelial voltage and resistance after 2-3 weeks on the filters. Cells were exposed to the recombinant human IL-13 (R&D Systems, Minneapolis Minn.) for up to four days at concentrations ranging from 0.1 ng/ml to 10 ng/ml. Filters were cut from the support and submerged in RLT lysis buffer (Qiagen Inc, Valencia Calif.) and stored at −80° C. before analysis of gene expression by real time RT-PCR.

Substance: IL-13: recombinant human IL-13 (R&D Systems) used to stimulate airway epithelial cells
- Epithelial gene expression of periostin: large increases
- Epithelial gene expression of serpinB2: large increases
